Source: US20260049078A1, “DIFLUORO- AND TRIFLUORO-ACETYL HYDRAZIDES AS SELECTIVE HDAC6 INHIBITORS” (ITALFARMACO S.P.A., priority 2022, published 2026)

Assays:
recombinant human HDAC6 = recombinant human HDAC6 (Homo sapiens (Human), UniProt Q9UBN7); experiment: Enzyme inhibitory activity assay on HDAC6; type: biochemical; details: 30 minutes preincubation at 25° C.
Method: (§1) For each test compound, 100× concentrated DMSO solutions at 8 doses were prepared and then diluted in assay buffer (25 mM Tris-HCl, pH 8, 130 mM NaCl, 0.05% Tween-20, 10% Glycerol) to obtain 5× concentrated solutions in relation to the final concentrations (typical final concentration range—6.4-200000 nM or 0.18-50000 nM, final DMSO content—1%). Then 10 μL solution of each test compound concentration were placed on a 96-well plate in triplicate and 15 μL of 3.33× concentrated enzyme solution in the assay buffer containing 3.33× concentrated BSA (final BSA concentration 1 mg/mL) and, in case of HDAC6, 3.33× concentrated TCEP (final TCEP concentration—200 μM) were added to each well. After a period of preincubation at 25° C. (30 minutes for HDAC6 and 120 minutes for HDAC1), 25 μL of solution containing the substrate were added. As substrate, FLUOR DE LYS® deacetylase substrate (Enzo Life Sciences, cat: BML-KI104, FdL), FLUOR DE LYS®-Green substrate (Enzo Life Sciences, cat: BML-KI572, FdL_G) or Boc-Lys(Tfa)-AMC (Bachem, cat: 4060676.005, Tfal)—2× concentrated solution in assay buffer were used. Following a reaction period (30 minutes at 25° C.), 50 μL of the development solution consisting of concentrate FLUOR DE LYS® developer I (Enzo Life Sciences, ca: BML-KI105), diluted 200 times in buffer (50 mM Tris-HCl, pH 8, 137 mM NaCl, 2.7 mM KCl, 1 mM MgCl2) plus 2 μM TSA was added and, after 25 minutes at room temperature in the dark, using the Victor 1420 Multilabel Counter Perkin Elmer Wallac instrument, the fluorescence reading was carried out (excitation/emission: 485/535 nM—Fluor de Lys Green, 355/460 nM—Tfal, Fluor de Lys).
(§2) Enzymatic activity on recombinant human HDAC6 and HDAC1 was evaluated (Table 2) for each synthesized compound.

recombinant human HDAC1 = recombinant human HDAC1 (Homo sapiens (Human), UniProt Q13547); experiment: Enzyme inhibitory activity assay on HDAC1; type: biochemical; details: 120 minutes preincubation at 25° C.
Method: as §1, §2

[1] = system: human B cell precursor leukemia 697; experiment: In vitro α-tubulin acetylation in 697 cell line; type: cell-based; details: Homo sapiens, B-cell, 16 h; read-out: TubAc 697 cells EC50
Method: The in vitro α-tubulin acetylation was evaluated on human B cell precursor leukemia 697.
The 697 cells were maintained in RPMI Medium 1640 (Gibco, cat: 21875-034) supplemented with 10 mM HEPES (Gibco, cat: 15630-080), Pen-Strep (Penicillin 100 U/ml, Streptomycin 100 μg/ml, Gibco, cat: 15140-122) and 10% fetal bovine serum (Gibco, cat: 10270-106).
The cells were plated in 12-well plates (Costar, cat: 3512) at the density of 5.5×10^5 cells/ml.
Serial dilutions of test compounds in DMSO were prepared using 20 mM stock solutions to obtain 8 doses 200× concentrated in respect to final doses (2.7-100000 nM). Then the DMSO solutions were diluted 10× in culture medium to obtain 20× concentrated solutions which were used for cells treatment (125 μl of medium solutions were added to 2.375 ml of cells suspension). The final DMSO content was set as 0.5%. The plates were incubated at 37° C., 5% CO2 for 16 hours.
At the end of the incubation period, the cells were harvested and centrifuged for 5 minutes at 200×g and washed with 0.9% NaCl at 4° C. The resulting pellet was treated for 30 minutes at 4° C. with 100 μl Complete Lysis-M buffer containing protease inhibitors (Complete Lysis-M Roche+Complete Tablets, Mini Easypack, cat: 4719956001) and phosphatase inhibitor cocktails (PhosStop Easypack, Roche, cat: 4906837001) and then centrifuged 10 minutes at 18213×g. The protein concentration in each supernatant was determined using BCA Protein Assay Kit (Pierce, cat: 23227). The samples were diluted in PBS 1× to obtain 2 μg/ml concentration and coated in MaxiSorp 96-well plates (Nunc, cat: 442404). The plates were incubated overnight at room temperature.
Plates were washed twice with Wash Buffer (PBS 1×+0.005% tween 20) and saturated for 1 hour at room temperature with 300 μL of 1×PBS containing 10% FBS. After washing twice with Wash Buffer, the plates were incubated for 2 hours at room temperature in the presence of 100 μl/well either anti-acetylated-α-tubulin antibody (Monoclonal Anti-Tubulin, Acetylated antibody produced in mouse, Sigma-Aldrich, cat: T6793) or total anti-α-tubulin antibody (Monoclonal Anti-α-Tubulin produced in mouse, Sigma-Aldrich, cat: T6074) diluted 1:1000 in 1×PBS containing 10% FBS. Following 5 washing cycles with Wash Buffer the secondary antibody conjugated with the enzyme HRP (Goat anti-Mouse IgG, IgM, IgA (H+L), stock concentration 0.5 mg/ml, Thermo Fisher Scientific, cat: A10668), diluted 1:1000 in 1×PBS+10% FBS was added at the volume of 100 μl/well. After two hours of incubation at room temperature the plates were washed 4 times with Wash Buffer, then 100 μl/well of TMB substrate (TMB substrate kit, Thermo Fisher Scientific, cat: 34021) was added for 10 minutes at room temperature in the dark. The reaction was stopped by adding 50 μl of 2M H2SO4. The plates were read in BioTek Synergy H1 multimode microplate reader at a wavelength of 450 nm.
The measured absorbance was corrected by subtracting the mean of blank values (samples without the primary antibody). The absorbance ratios of acetyl to total tubulin assays were calculated and normalized to the reference compound (positive control) 4 parameter logistic curve, where 0% is the fitted bottom and 100% is the fitted top of the curve. The results are expressed as relative EC50.

SH-SY5Y cells = experiment: In vitro α-tubulin acetylation in undifferentiated SH-SY5Y cells; type: cell-based; details: overnight, @1uM
Method: SH-SY5Y cells (ATCC, cod. CRL-2266) are plated in optical optimized 96-well black plates (Perkin Elmer, cod. 6055302) at 5000 cells/well in 100 μl/well of growth medium (DMEM/F12 (1:1)+10 mM hepes+100 units/mL of penicillin+100 μg/mL of streptomycin+10% of inactivated Foetal calf serum (FCS, Hyclone)).
After 24 h of seeding, cells are incubated overnight with the selected molecules at 0.1-1-10 μM. ACY1083 and Tubastatin A, at the same doses, are tested as positive controls of α-Tubulin acetylation, while untreated cells are incubated with 0.01% DMSO and indicated as CTRL DMSO.
At the end of the incubation, cells are fixed adding 100 μL/well of formaldehyde 8% in PBS (final formaldehyde concentration 4% in 200 μL/well) directly in the 100 μL/well of medium, for 30 min at RT. The fixing solution is carefully removed, and wells are washed twice with PBS for 10 min each. Fixed cells are kept in PBS at 4° C. until staining.
The day of the staining experiment, the fixed cells are incubated 60 min with the blocking buffer (PBS with 5% FCS+0.3% Triton™ X-100). While blocking, primary antibodies are prepared by diluting 1:200 the α-Tubulin Alexa Fluor 488 Conjugate (Cell Signaling, cod. 5063) antibody and 1:50 Acetyl-α-Tubulin Alexa Fluor 647 Conjugate (Cell Signaling, cod. 81502) antibody in the Antibody Dilution Buffer (PBS with 1% BSA+0.3% Triton™ X-100). Once the blocking solution is aspirated, the diluted primary antibodies are applied and incubated overnight at 4° C. The next day, cells are rinsed twice with PBS (10 min each), incubated 5 min with 300 nM DAPI in PBS, and then rinsed twice with PBS (10 min each). For each treatment, 3 wells are stained.
Images of the stained cells are acquired by means of the IN Cell Analyzer 2500 HS Instrument, using: far red channel for Acetyl-α-Tubulin staining (exposure 0.02 sec), green channel for α-Tubulin staining (exposure 0.02 sec), and blue channel for DAPI (nuclei) staining. For each well, 10 images are acquired.
Images of stained cells are analysed with the InCarta software (Molecular Devices) for obtaining fluorescence intensity considering whole cells. For each treatment, mean values of Cell intensity—Bckg (Cell), for both staining, are obtained using the InCarta raw data by FOV (Field of View). Results are expressed as fold increase of the ratio of acetylated tubulin and total tubulin towards control (CTRL DMSO).

HDAC6 = experiment: Kinetic of prodrug disappearing when incubated with HDAC6 (LC-HRMS); type: biochemical; details: HDAC6 1 μM, 5 μM compound, 25° C.
Method: The LC-HRMS analysis was carried out using a Vanquish Flex UHPLC (Thermo Fisher Scientific) and a high-resolution mass spectrometer Orbitrap QExactive Focus (Thermo Fisher Scientific), equipped with a Heated Electrospray Ionization, operated in positive mode. A Full Scan analysis was set in the m/z range 50-500 amu. A XSelect HSS T3 50×2.1 mm, 2.5 μm chromatographic column (Waters) was used. Mobile phase A consisted of 0.1% formic acid in water and mobile phase B in 0.1% formic acid in acetonitrile. The flow rate was set to 0.5 mL/min, with a gradient program from 3 to 20% B in 3 minutes.

zHDAC6-CD2 wt = zHDAC6-CD2 wt (Danio rerio (Zebrafish) (Brachydanio rerio), UniProt F8W4B7); experiment: Isolation of long-lived/tight complex (spin column chromatography with LC-HRMS); type: binding; details: zHDAC6-CD2 wt 1 μM, compound 5 μM, 6 hours, Bio-Spin P-6
Method: Rapid chromatography on spin columns coupled to LC-HRMS was used to attempt the isolation of long-lived/tight complexes between HDAC6 and examples 1 and 1-A. zHDAC6-CD2 wt (1 μM) was incubated with 1 (5 μM) or 1-A (also 5 μM) as described before for 6 hours. An aliquot (60 μL) was loaded on a Bio-Spin P-6 Gel Column (Bio-Rad) that had been equilibrated with assay buffer in order to separate the HDAC6-inhibitors complexes from free compounds. After centrifugation to elute the initial fraction containing most of the enzyme, ten 200 μL aliquots were applied and eluted by centrifugation to collect the low molecular weight (free) compounds. Aliquots of the fractions were subjected to LC-HRMS analysis (as described above) for identification and quantitation of 1 and its derivatives.

Chain of recombinant human HDAC1 (Q13547 whole entry): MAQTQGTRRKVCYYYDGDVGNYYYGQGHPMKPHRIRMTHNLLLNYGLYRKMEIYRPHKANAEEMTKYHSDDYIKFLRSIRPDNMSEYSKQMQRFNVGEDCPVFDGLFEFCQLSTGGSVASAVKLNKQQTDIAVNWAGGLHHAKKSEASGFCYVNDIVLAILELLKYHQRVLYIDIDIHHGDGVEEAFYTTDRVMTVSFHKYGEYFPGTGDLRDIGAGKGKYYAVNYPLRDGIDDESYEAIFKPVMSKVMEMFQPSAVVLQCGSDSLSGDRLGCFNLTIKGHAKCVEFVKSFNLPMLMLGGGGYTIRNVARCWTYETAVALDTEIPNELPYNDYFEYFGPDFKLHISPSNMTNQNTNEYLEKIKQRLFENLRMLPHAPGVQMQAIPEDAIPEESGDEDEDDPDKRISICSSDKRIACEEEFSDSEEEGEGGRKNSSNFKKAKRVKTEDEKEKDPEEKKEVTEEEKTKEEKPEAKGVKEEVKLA
Chain of recombinant human HDAC6 (Q9UBN7 whole entry): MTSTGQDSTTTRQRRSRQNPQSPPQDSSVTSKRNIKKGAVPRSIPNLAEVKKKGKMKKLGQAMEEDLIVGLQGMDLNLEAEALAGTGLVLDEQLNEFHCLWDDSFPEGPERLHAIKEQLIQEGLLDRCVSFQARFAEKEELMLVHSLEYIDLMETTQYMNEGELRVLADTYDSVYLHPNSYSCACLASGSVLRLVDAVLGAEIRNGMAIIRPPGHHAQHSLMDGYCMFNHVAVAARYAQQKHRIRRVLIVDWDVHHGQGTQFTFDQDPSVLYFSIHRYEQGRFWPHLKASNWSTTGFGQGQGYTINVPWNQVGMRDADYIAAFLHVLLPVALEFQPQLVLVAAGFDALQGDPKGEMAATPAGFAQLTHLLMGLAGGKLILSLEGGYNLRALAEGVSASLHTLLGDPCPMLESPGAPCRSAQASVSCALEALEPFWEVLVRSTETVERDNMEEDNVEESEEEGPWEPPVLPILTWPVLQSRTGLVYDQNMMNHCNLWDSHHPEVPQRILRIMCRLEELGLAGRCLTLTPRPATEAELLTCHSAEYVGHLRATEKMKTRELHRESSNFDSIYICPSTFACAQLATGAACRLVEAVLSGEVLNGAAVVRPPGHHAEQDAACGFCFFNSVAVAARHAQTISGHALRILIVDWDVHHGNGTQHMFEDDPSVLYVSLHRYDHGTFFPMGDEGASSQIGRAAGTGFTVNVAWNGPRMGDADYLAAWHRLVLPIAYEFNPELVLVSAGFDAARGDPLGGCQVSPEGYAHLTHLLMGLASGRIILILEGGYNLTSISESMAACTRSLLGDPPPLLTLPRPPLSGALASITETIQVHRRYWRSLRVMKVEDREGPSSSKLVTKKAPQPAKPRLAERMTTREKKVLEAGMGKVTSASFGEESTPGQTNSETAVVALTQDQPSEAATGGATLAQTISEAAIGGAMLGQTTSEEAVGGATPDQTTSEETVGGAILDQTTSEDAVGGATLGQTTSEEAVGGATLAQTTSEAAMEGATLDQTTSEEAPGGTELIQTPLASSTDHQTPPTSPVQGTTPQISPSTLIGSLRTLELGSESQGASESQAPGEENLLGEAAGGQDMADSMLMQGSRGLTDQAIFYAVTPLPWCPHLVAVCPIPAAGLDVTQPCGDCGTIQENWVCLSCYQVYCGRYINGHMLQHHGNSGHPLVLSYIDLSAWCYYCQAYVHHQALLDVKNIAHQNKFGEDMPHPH
Chain of zHDAC6-CD2 wt (F8W4B7 entry or part of it del 1-439/del 799-1081 limits assumed): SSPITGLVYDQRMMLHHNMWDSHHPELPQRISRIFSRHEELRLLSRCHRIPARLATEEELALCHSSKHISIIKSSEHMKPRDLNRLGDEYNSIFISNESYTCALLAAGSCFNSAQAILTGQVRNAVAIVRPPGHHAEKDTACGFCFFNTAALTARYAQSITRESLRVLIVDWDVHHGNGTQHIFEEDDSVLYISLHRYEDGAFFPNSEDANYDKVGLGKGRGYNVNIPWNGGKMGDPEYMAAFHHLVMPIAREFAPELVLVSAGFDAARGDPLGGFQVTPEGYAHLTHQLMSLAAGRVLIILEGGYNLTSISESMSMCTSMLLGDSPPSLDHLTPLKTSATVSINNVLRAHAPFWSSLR

Row | SMILES | IC50 (recombinant human HDAC6) | IC50 (recombinant human HDAC1) | EC50 [1] | TubAc SH-SY5Y cells fold increase of the ratio of acetylated tubulin and total tubulin towards control (SH-SY5Y cells) | percentage of compound concentration (prodrug remaining) (HDAC6; time 0 min) | percentage of compound concentration (prodrug remaining) (HDAC6; time 30 min) | percentage of compound concentration (prodrug remaining) (HDAC6; time 60 min) | percentage of compound concentration (prodrug remaining) (HDAC6; time 120 min) | percentage of compound concentration (prodrug remaining) (HDAC6; time 240 min) | percentage of compound concentration (prodrug remaining) (HDAC6; time 360 min) | percentage of compound concentration (prodrug remaining) (HDAC6; time 480 min) | half-life at 5 µM (HDAC6; HDAC6 enzyme in assay buffer, read-out: T1/2 of prodrug disappearing) | co-elution with the enzyme (fraction 1) (zHDAC6-CD2 wt)
1 | CC(c1ccc(-c2nnc(C(F)F)o2)cn1)n1cc(-c2ccc(N)nc2)nn1 (stereo not shown) [Compound 39-A] | 0.014 µM | > 100 µM | 0.32 µM | 6.5 fold | – | – | – | – | – | – | – | – | –
2 | Nc1ccc(-c2cn(Cc3ccc(-c4nnc(C(F)F)o4)cc3)nn2)cn1 [Compound 45-A] | 0.026 µM | > 100 µM | 0.664 µM | – | 100.00% | 79.9% | 73.7% | 47.8% | 22.6% | 11.6% | 5.2% | 1.89 h | –
3 | O=C(NNC(=O)C(F)F)c1ccc(Cn2cc(-c3ccc(NC4=NCCN4)cc3)nn2)cc1 [Compound 1, N′-(2,2-difluoroacetyl)-4-((4-(4-((4,5-dihydro-1H-imidazol-2-yl)amino)phenyl)-1H-1,2,3-triazol-1-yl)methyl)benzohydrazide] | – | – | – | – | – | – | – | – | – | – | – | – | co-elutes with the enzyme
